# Measured values reported in patent US8426588B2, “Phenylalanine derivatives” (Ajinomoto Co, Inc., priority 2000, dated 2013).
# What was measured:
# integrin α4β1 = molecular target: T1, integrin α4β1 (Homo sapiens, UniProt P05556+P13612); assay: VCAM antagonist activity (VCAM-1/α4β1 binding assay), Jurkat cells binding to VCAM-1; assay type: cell-based; conditions: Jurkat human T cells binding to recombinant human VCAM-1; read-out: VCAM antagonistic activity (IC50) α4β1
# T1 construct: cell strain Jurkat (ATCC TIB-152) of human T cells, known to express integrin α4β1; endogenous in cells; host or cells: Jurkat (ATCC TIB-152)
# Description: VCAM Antagonist Activity (VCAM-1/α4β1 Binding Assay)
# The capacity of a test substance antagonistic to the binding of cell strain Jurkat (ATCC TIB-152) of human T cells, known to express integrin α4β1, to VCAM-1 was determined.
# (§1) 100 μl/well of a solution (500 ng/ml) of recombinant human VCAM-1 (R & D systems) solution diluted with buffer A (0.1 M NaHCO3, pH 9.6) was added to a micro titer plate having 96 wells (Nunc Maxisorp). After the incubation at 4° C. overnight, unbound VCAM-1 was removed by washing once with PBS. After completion of the washing, a buffer (buffer B) obtained by diluting Block Ace (Dainippon Pharmaceutical Co., Ltd.) with PBS to ¼ concentration was added in an amount of 150 μl/well. After the incubation at room temperature for 1 hour, buffer B was removed and the plate was washed with PBS once.
# Jurkat cells were washed with Dulbecco modified Eagle medium (SIGMA, hereinafter referred to as “DMEM”) twice and then incubated in DMEM containing 10 μg/ml of Calcein-AM (Wako Pure Chemical Industries, Ltd.) at 37° C. in dark place for 30 minutes to label with fluorescence. The cells were again suspended in a binding buffer (20 mM HEPES, DMEM containing 0.1% BSA).
# (§2) 50 μl of a test substance of various concentrations obtained by the dilution with the binding buffer was added to the plate. Immediately thereafter, 50 μl (final volume: 100 μl/well) of the fluorescent Jurkat cells (4×10^6 cells/ml) were added thereto, and they were incubated in dark place at room temperature for 30 minutes. After the shaking on a plate shaker (IKA MTS-4) at 800 rpm for 30 seconds, the solution was immediately removed to remove the unbound cells. The fluorescence quantity of the bound cells remaining in the wells was determined with a fluorescent plate reader (Wallac 1920 ARVO multi-label counter) (filter excitation wave length: 485 nm, emission wave length: 535 nm). The fluorescent strength thus obtained is proportional to the number of Jurkat cells bound to VCAM-1 and remaining on the plate. The binding rate of each test material in various concentrations was determined while the fluorescent strength of the test material-free well was determined to be 100%.
# integrin α4β7 = molecular target: T2, integrin α4β7 (Homo sapiens, UniProt P13612+P26010); assay: VCAM antagonistic activity (VCAM-1/α4β7 binding assay), RPMI-8866 cells binding to VCAM-1; assay type: cell-based; conditions: RPMI-8866 human B lymphoma cells binding to recombinant human VCAM-1; binding buffer with 4 mM MnCl2
# T2 construct: lymphoma cell strain RPMI-8866 of human B cells, known to express integrin α4β7; endogenous in cells; host or cells: RPMI-8866
# T2 sequence (P13612 34-1032): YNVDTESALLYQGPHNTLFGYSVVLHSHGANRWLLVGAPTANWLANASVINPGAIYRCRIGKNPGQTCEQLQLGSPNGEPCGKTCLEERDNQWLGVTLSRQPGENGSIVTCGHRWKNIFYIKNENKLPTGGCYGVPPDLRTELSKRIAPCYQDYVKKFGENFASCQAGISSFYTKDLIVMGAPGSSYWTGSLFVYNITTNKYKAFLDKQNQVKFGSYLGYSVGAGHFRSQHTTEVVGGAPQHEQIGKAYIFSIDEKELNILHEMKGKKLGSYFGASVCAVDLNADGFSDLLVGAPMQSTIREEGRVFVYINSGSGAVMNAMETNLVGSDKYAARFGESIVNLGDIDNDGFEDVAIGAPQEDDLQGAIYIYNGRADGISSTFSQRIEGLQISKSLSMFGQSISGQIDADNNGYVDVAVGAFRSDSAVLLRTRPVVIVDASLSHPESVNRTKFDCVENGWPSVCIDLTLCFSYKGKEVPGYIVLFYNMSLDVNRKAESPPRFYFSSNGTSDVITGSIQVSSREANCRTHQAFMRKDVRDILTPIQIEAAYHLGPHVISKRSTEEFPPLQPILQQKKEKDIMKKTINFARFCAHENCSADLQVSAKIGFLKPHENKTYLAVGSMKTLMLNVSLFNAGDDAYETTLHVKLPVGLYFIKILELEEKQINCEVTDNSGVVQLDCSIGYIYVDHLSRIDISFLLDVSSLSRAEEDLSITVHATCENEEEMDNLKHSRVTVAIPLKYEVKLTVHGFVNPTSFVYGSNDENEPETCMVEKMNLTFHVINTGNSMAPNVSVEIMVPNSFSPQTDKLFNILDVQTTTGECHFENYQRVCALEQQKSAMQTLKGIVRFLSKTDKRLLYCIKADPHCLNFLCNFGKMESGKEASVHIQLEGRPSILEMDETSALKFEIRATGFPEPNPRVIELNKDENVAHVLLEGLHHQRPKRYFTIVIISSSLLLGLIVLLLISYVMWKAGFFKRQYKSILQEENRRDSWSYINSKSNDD
# T2 sequence (P26010 20-798): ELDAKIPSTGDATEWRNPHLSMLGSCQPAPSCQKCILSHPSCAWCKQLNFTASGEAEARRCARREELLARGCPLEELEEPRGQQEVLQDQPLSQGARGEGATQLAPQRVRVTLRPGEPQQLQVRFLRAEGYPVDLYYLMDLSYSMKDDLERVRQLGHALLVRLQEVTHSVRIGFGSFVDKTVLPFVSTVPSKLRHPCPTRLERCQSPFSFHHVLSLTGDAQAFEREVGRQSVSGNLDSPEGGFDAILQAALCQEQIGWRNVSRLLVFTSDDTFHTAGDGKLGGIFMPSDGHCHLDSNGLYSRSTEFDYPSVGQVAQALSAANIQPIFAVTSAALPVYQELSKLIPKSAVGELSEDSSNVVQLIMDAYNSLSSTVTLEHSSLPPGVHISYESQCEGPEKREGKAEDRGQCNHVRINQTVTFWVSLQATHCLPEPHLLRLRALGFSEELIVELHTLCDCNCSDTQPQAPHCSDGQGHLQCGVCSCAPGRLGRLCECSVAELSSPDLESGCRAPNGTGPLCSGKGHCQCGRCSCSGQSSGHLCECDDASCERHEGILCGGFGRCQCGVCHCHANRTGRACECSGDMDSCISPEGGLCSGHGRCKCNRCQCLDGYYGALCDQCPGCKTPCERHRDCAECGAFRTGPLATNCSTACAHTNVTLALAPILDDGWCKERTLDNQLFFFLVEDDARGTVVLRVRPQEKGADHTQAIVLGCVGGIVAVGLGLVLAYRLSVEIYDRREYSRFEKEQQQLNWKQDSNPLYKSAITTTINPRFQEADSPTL
# Description: VCAM Antagonistic Activity (VCAM-1/α4β7 Binding Assay)
# The capacity of a test substance antagonistic to the binding of lymphoma cell strain RPMI-8866 of human B cells, known to express integrin α4β7, to VCAM-1 was determined.
# as §1
# RPMI-8866 cells were washed with DMEM twice and incubated in Dulbecco modified Eagle medium containing 10 μg/ml of Calcein-AM (Wako Pure Chemical Industries, Ltd.) (SIGMA, hereinafter referred to as “DMEM”) in dark place at 37° C. for 30 minutes to label with fluorescence. The cells were again suspended in a binding buffer (20 mM HEPES, DMEM containing 0.1% BSA) containing 4 mM of MnCl2.
# as §2, with “RPMI-8866” for “Jurkat”, “1420” for “1920”
# T1 sequence (P05556 21-798, one chain of several): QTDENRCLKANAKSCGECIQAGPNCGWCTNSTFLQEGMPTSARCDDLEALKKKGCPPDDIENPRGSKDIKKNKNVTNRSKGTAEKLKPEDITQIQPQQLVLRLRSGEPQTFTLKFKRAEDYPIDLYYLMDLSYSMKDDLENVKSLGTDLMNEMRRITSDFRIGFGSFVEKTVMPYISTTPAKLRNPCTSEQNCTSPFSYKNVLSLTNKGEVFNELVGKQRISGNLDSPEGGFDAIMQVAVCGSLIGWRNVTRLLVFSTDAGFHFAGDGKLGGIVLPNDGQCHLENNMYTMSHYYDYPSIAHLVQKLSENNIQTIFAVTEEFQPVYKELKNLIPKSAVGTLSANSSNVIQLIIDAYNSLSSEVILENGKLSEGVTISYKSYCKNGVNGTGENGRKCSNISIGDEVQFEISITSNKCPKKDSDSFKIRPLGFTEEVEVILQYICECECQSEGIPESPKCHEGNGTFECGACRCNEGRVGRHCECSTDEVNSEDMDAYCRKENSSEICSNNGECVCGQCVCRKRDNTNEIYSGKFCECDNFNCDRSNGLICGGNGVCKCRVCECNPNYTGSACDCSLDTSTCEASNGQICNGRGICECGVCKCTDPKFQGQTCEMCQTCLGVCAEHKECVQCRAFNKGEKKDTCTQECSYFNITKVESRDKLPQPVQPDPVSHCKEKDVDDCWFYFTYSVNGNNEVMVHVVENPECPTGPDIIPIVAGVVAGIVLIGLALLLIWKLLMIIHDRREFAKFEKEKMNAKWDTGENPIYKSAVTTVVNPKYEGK
Compound,IC50 (integrin α4β1) [nM],IC50 (integrin α4β7) [nM]
O=C(N[C@@H](Cc1ccc(-n2c(=O)[nH]c3ccccc3c2=O)cc1)C(=O)O)c1c(Cl)cccc1Cl [Example 2],240,9.2
CCn1c(=O)n(-c2ccc(C[C@H](NC(=O)c3c(Cl)cccc3Cl)C(=O)O)cc2)c(=O)c2ccccc21 [Example 3],66,3.5
O=C(O)Cn1c(=O)n(-c2ccc(C[C@H](NC(=O)c3c(Cl)cccc3Cl)C(=O)O)cc2)c(=O)c2ccccc21 [Example 7],110,22
COc1cccc(OC)c1C(=O)N[C@@H](Cc1ccc(-n2c(=O)c3ccccc3n(C)c2=O)cc1)C(=O)O [Example 9],440,94
Cn1c(=O)n(-c2ccc(C[C@H](NC(=O)C3CCCCC3)C(=O)O)cc2)c(=O)c2ccccc21 [Example 12],490,19
Cn1c(=O)n(-c2ccc(C[C@H](NC(=O)[C@H]3CC[C@H](C(=O)O)CC3)C(=O)O)cc2)c(=O)c2ccccc21 [Example 13],220,4.5
CCSc1nc2ccccc2c(=O)n1-c1ccc(C[C@H](NC(=O)c2c(Cl)cccc2Cl)C(=O)O)cc1 [Example 17],2100,43
CSc1nc2ccccc2c(=O)n1-c1ccc(C[C@H](NC(=O)c2c(Cl)cccc2Cl)C(=O)O)cc1 [Example 18],1900,23
COc1ccc(C(=O)CSc2nc3ccccc3c(=O)n2-c2ccc(C[C@H](NC(=O)c3c(Cl)cccc3Cl)C(=O)O)cc2)cc1 [Example 23],7240,18
Cc1nc2ccccc2c(=O)n1-c1ccc(C[C@H](NC(=O)c2c(Cl)cccc2Cl)C(=O)O)cc1 [Example 31],630,50
CCc1nc2ccccc2c(=O)n1-c1ccc(C[C@H](NC(=O)c2c(Cl)cccc2Cl)C(=O)O)cc1 [Example 32],2420,64
CCCCc1nc2ccccc2c(=O)n1-c1ccc(C[C@H](NC(=O)c2c(Cl)cccc2Cl)C(=O)O)cc1 [Example 34],2210,42
O=C(N[C@@H](Cc1ccc(-n2c(-c3ccccc3)nc3ccccc3c2=O)cc1)C(=O)O)c1c(Cl)cccc1Cl [Example 35],1700,68

# More lines, now with the values ahead:
IC50 (integrin α4β1) [nM],IC50 (integrin α4β7) [nM],Compound
490,6.6,COc1nc2ccccc2c(=O)n1-c1ccc(C[C@H](NC(=O)c2c(Cl)cccc2Cl)C(=O)O)cc1 [Example 36]
200,19,CCOc1nc2ccccc2c(=O)n1-c1ccc(C[C@H](NC(=O)c2c(Cl)cccc2Cl)C(=O)O)cc1 [Example 37]
3410,86,CCCCc1nc2ccccc2c(=O)n1-c1ccc(C[C@H](NC(=O)c2c(C)cccc2C)C(=O)O)cc1 [Example 41]
6730,92,Cc1cccc(C)c1C(=O)N[C@@H](Cc1ccc(-n2c(-c3ccccc3)nc3ccccc3c2=O)cc1)C(=O)O [Example 42]
4230,79,Cc1cccc(C)c1C(=O)N[C@@H](Cc1ccc(-n2c(CCl)nc3ccccc3c2=O)cc1)C(=O)O [Example 44]
340,10.2,O=C(N[C@@H](Cc1ccc(-n2c(=O)[nH]c3c(Cl)cccc3c2=O)cc1)C(=O)O)c1c(Cl)cccc1Cl [Example 45]
195,6.8,COc1cccc2c(=O)n(-c3ccc(C[C@H](NC(=O)c4c(Cl)cccc4Cl)C(=O)O)cc3)c(=O)[nH]c12 [Example 46]
1980,76,O=C(N[C@@H](Cc1ccc(-n2c(=O)[nH]c3ccc(Cl)cc3c2=O)cc1)C(=O)O)c1c(Cl)cccc1Cl [Example 47]
1800,28,COc1ccc2[nH]c(=O)n(-c3ccc(C[C@H](NC(=O)c4c(Cl)cccc4Cl)C(=O)O)cc3)c(=O)c2c1 [Example 48]
1180,62.1,O=C(N[C@@H](Cc1ccc(-n2c(=O)[nH]c3cc(C(F)(F)F)ccc3c2=O)cc1)C(=O)O)c1c(Cl)cccc1Cl [Example 49]
1770,7.9,Cc1cccc2c(=O)n(-c3ccc(C[C@H](NC(=O)c4c(Cl)cccc4Cl)C(=O)O)cc3)c(=O)[nH]c12 [Example 50]
1180,30,COc1cc2[nH]c(=O)n(-c3ccc(C[C@H](NC(=O)c4c(Cl)cccc4Cl)C(=O)O)cc3)c(=O)c2cc1OC [Example 51]
1310,55.3,O=C(N[C@@H](Cc1ccc(-n2c(=O)[nH]c3ccc(F)cc3c2=O)cc1)C(=O)O)c1c(Cl)cccc1Cl [Example 52]
